Experimental data published in US5098933A, “Pharmaceutically useful Michael addition products of unsaturated aldehydes and ketones and ascorbic acid” (Theracel Corporation, priority 1990, dated 1992).

How the values were obtained:
[1] = Parenteral Toxicity--LD50 in mice; conditions: mouse, in vivo, ip
Method: (§1) The objective of this experiment was to determine the LD50 value for KCPBL when administered intraperitoneally to mice in a standard LD50 test procedure.
(§2) The test animals were CD-1 male mice. The mean weight for these animals on the day of test product administration was 25.5 grams.
(§3) KCPBL (lot 101, consisting of 42% stereoisomer A and 58% stereoisomer B) was dissolved in pyrogen-free normal (0.85%) saline (NaCl).
(§4) Five animals constituted each treatment group.
(§5) Each mouse received 0.5 ml by intraperitoneal (i.p.) injection, using a 3.0 cc syringe fitted with a 23-gauge needle.
(§6) All mice were observed daily for signs, symptoms and survival for three days. Survival statistics were determined after third day.
(§7) Two mice were randomly selected from the control and high dose test group for sacrifice and selection of tissues for histopatholigic examination.
(§8) LD50 was calculated by the method of Spearman & Karber: Basic Exercises in Immunochemistry, A. Nowatny (Ed); Pg 184-85, Springer-Verlag,N.J.

CD-1 male mice [2] = test: Parenteral Toxicity--LD50 in mice
Method: as §1, §2, §3, §4, §5, §6, §7, §8

CD-1 male mice [3] = test: Oral Toxicity, single high dose in mice; format: in vivo; conditions: 5000 mg/kg p.o., 14 days
Method: The objective of this experiment was to observe the clinical effects associated with the peroral administration of a single high dose of KCPBL to mice.
The test animals were CD-1 male mice.
Nine animals constituted the active peroral treatment group; eight animals were used in the vehicle control group.
Each mouse received a single 0.2 ml peroral (p.o.) dose using a 1.0 cc syringe fitted with a curved gavage needle.
Survival statistics were determined after the fourteenth day. All surviving mice were sacrificed on the fifteenth day, selected organs removed and weighed on a AE 100 Mettler balance and then fixed in formalin for histopathologic examination.

IL-2 = test: Immunotoxicity--Multi-dose: IL-2 induction; format: in vivo, mice
Method: The study incorporated five treatment groups into its design: group 1, sham intravenous control; group 2, 100 mg/kg/day perorally; group 3, 1000 mg/kg/day intravenously; group 4, […], and, group 5, 100 mg/kg/day intravenously. Mice were administered KCPBL daily for a total of fourteen days via the oral (0.2 ml of a 147.5 mg/ml solution or a 29.5 mg/ml solution by gavage) and intravenous route (0.2 ml of 147.5 mg/ml solution or a 29.5 mg/ml solution by tail vein) to achieve a dose of 100 or 1000 mg/kg, respectively. The test dose was prepared fresh daily and dissolved in sterile non-pyrogenic saline. On the fifteenth day the mice were weighed, sacrificed, and the spleens, lungs, livers, kidneys and thymuses removed. These organs were weighed and, except for the spleens, the formalin-fixed organs were analyzed by a veterinary pathologist. Only two randomly-selected sets of animal organs per treatment group were histopathologically evaluated since the remaining three animals were used to isolate splenic lymphocytes for use in cellular immunoassays.
A leukocyte differential was obtained on peripheral blood samples and spleen cell counts (performed with Coulter Counter), and an IL-2 induction assessment as well as standard lymphocyte stimulation assays using PHA, CON-A and PWM conducted.
The individual spleens of three mice from control and test groups were processed to isolate lymphocytes and the protocols for lymphocyte blastogenesis, IL-2 induction and assay were performed. The remaining two mice in each group were sacrificed and their lungs, liver, kidney, and spleen were fixed in formalin and sent to AnMed Biosafe for histopathologic examination.

interleukin-2 = test: Immunomodulation panel: In vitro production of interleukin-2 (CTLL2 bioassay); format: in vivo, C57BL/6J mice
Text: The bioassay uses the IL-2 growth-dependent cell line, CTLL2 as the indicator cell line to quantitate IL-2 in a biological fluid. The assay utilizes tritiated thymidine uptake by these cells as a measure of cellular proliferation. A reference standard obtained from the NCI Biological Response Modifiers Program is employed to construct a standard curve and to calculate Half Maximal Units (HMU) activity per ml. The assay was modified from one reported by Gillis et al. (J. Immunol. 120: 2927, 1978) and was recently reviewed as a clinical bioassay (Shalaby and Pallidino, In: Manual of Clinical Laboratory Immunology, 3rd Ed., p 300, American Society for Microbiology, Washington, D.C.).
2. Each sample is assayed in triplicate, over dilutions of 1/2, 1/4, 1/8, and 1/16 in a 96 well flat bottom plate. A totoal of eight (8) samples may be assayed in a single 96 well plate.
Analysis: Values are obtained from counter as counts per minute (cpm). The average of each triplicate sample dilution count is calculated. A standard curve of known half maximal units of the IL-2 standard dilution/cpm is constructed using a PC program for generation of the least squares line of best fit. IL-2 values are thus assessed for each sample based upon the standard curve and reported.
Daily intraperitoneal injections of KCPBL were administered to normal animals and immunological responsiveness to mitogens and specific antigen evaluated.
Doses and schedule--Doses were selected to bracket the range generally known to be immunostimulatory in past experiments, 1, 10, and […] daily for four days.
As an assessment of immunopathology in the above screening test panel, the cellularity of the spleen was evaluated by determination of the total number of splenocytes harvested. Humoral-mediated immunity was measured by enumerating IgM plaque-forming cells to the T-dependent antigen sheep erythrocytes. Cell-mediated immunity was evaluated as described above by determination of the ability of the splenocytes to produce the lymphokine interleukin-2 in response to stimulation by the mitogen concanavalin-A. Another measurement of cell-mediated immunity was the responsiveness of the splenic lymphocytes to the mitogens concanavalin-A (Con-A); phytohemagglutinin (PHA) and pokeweed mitogen (PWM) in the lymphocyte blastogenesis assay. In the latter test, the activation and proliferation of the lymphocytes to the mitogens represents the capability of the cells to sequentially pass from G0 to G1 and the S phse of the cell cycle. The responsiveness of the cells was measured by the uptake of radiolabeled 14C-thymidine.

immune system = test: Tests to establish immunomodulatory properties (overall statement); format: in vivo; conditions: normal antigen stimulated mice
Method: The following tests were conducted on various compounds within the scope of this invention to establish their immunodmodulatory properties. […] Conversely, at higher dosage levels, e.g. about 200 to 600 mg/kg body weight they function as immunoinhibitors.
The tests used to establish immunostimulation were:

With O=C1CCC(C2(O)C(=O)OC3C(O)COC32O)C1 (stereo not shown) [KCPBL] the LD50 at 72 h [1] was ~8570 mg/kg, the deaths (CD-1 male mice [2]; highest dose level, i.p.) was “Only two animals died” and the “organ histopathology (lungs, liver, kidneys)” value (CD-1 male mice [2]; mouse, in vivo) was “no significant deviations in organ histopathology”. For the same compound, the “overt signs or symptoms of toxic response” value (CD-1 male mice [2]; mouse, in vivo, ip) was “no overt signs or symptoms observed”, the deaths (CD-1 male mice [3]) was “One mouse in the KCPBL group died on the 12th day” and the deaths (CD-1 male mice [3]; listed as BL-012) was “Only one animal died”. The IL-2 (IL-2; 100 mg/kg IV (group 5)) was 41.15 HMU/MI, the IL-2 (IL-2; 100 mg/kg P.O. (group 4)) was 44.81 ± 20.8 HMU/MI and the IL-2 (IL-2; 1000 mg/kg IV (group 3)) was 18.12 ± 10.50 HMU/MI. For the same compound, the IL-2 (IL-2; 1000 mg/kg P.O. (group 2)) was 21.11 ± 13.69 HMU/MI, the IL-2 production (IL-2; treated vs sham-injected controls) was “comparable” and the “IL-2 Half Maximal Units” value (interleukin-2; 1.0 mg/kg i.p.) was 4.48 ± 1.5 Half Maximal Units [10^6 Cells. The “IL-2 Half Maximal Units” value (interleukin-2; 10 mg/kg i.p.) was 4.33 ± 1.4 Half Maximal Units [10^6 Cells, the “IL-2 Half Maximal Units” value (interleukin-2; 100 mg/kg i.p.) was 4.14 ± 1.3 Half Maximal Units [10^6 Cells and the “IL-2 production vs controls” value (interleukin-2; drug-treated animals) was “produced significantly more IL-2 than controls”. For the same compound, the “immunostimulatory activity on T-helper (Th) mediated lymphocyte functions” value (immune system) was “demonstrated an immunostimulatory activity on T-helper (Th) mediated lymphocyte functions”.
